According to PubChem BioAssay AID248 (DTP/NCI, 2004):
Several values for one entry are separate records, joined by “and”; a condition that tells them apart may be missing. Equal values may be shown once. Inconclusive results and toxic doses are left out.

Tested on: L1210 leukemia ip in BDF1 mice, survival T/C
Test: NCI In Vivo Anticancer Drug Screen. Data for tumor model L1210 Leukemia (intraperitoneal) in B6D2F1 (BDF1) mice
Settings: higher = longer survival
Procedure, shortened: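 In this screen, tumor-bearing mice given compound are compared to those given vehicle, and their survival values are reported as a treated-to-control quotient.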

`C1CN1c1nc(N2CC2)nc(N2CC2)n1` was tested, and the T/C (endpoint: mean survival time, dose: 0.05 mg/kg/injection, schedule: Q01DX009 (ip), vehicle: saline) was 94 % of control, the T/C (endpoint: mean survival time, dose: 0.06 mg/kg/injection, schedule: Q01DX009 (ip), vehicle: saline) was 95 % of control and the T/C (endpoint: mean survival time, dose: 0.06 mg/kg/injection, schedule: Q01DX Z (ip), vehicle: saline) was 97 % of control. The T/C (endpoint: mean survival time, dose: 0.1 mg/kg/injection, schedule: Q01DX009 (ip), vehicle: saline) was 105 % of control, the T/C (endpoint: mean survival time, dose: 0.12 mg/kg/injection, schedule: Q01DX005 (ip), vehicle: saline) was 115 % of control and the T/C (endpoint: mean survival time, dose: 0.12 mg/kg/injection, schedule: Q01DX009 (ip), vehicle: saline) was 107 % of control. For the same compound, the T/C (endpoint: mean survival time, dose: 0.12 mg/kg/injection, schedule: Q01DX009 (sc), vehicle: saline) was 101 % of control, the T/C (endpoint: mean survival time, dose: 0.12 mg/kg/injection, schedule: Q01DX010 (ip), vehicle: saline) was 110 % of control and the T/C (endpoint: mean survival time, dose: 0.12 mg/kg/injection, schedule: Q01DX Z (ip), vehicle: carboxymethylcellulose (CMC)) was 113 % of control. For the same compound, the T/C (endpoint: mean survival time, dose: 0.12 mg/kg/injection, schedule: Q01DX Z (ip), vehicle: saline) was 118 % of control, the T/C (endpoint: mean survival time, dose: 0.13 mg/kg/injection, schedule: Q01DX009 (ip), vehicle: saline) was 110 % of control and the T/C (endpoint: mean survival time, dose: 0.13 mg/kg/injection, schedule: Q01DX010 (oral), vehicle: carboxymethylcellulose (CMC)) was 119 % of control. For the same compound, the T/C (endpoint: mean survival time, dose: 0.16 mg/kg/injection, schedule: Q01DX001 (ip), vehicle: saline) was 109 % of control and 120 % of control, the T/C (endpoint: mean survival time, dose: 0.2 mg/kg/injection, schedule: Q01DX009 (ip), vehicle: saline) was 121 % of control and the T/C (endpoint: mean survival time, dose: 0.25 mg/kg/injection, schedule: Q01DX001 (ip), vehicle: saline) was 103 % of control. For the same compound, the T/C (endpoint: mean survival time, dose: 0.25 mg/kg/injection, schedule: Q01DX005 (ip), vehicle: saline) was 115 % of control, the T/C (endpoint: mean survival time, dose: 0.25 mg/kg/injection, schedule: Q01DX006 (iv), vehicle: saline) was 119 % of control and the T/C (endpoint: mean survival time, dose: 0.25 mg/kg/injection, schedule: Q01DX009 (sc), vehicle: saline) was 123 % of control. The T/C (endpoint: mean survival time, dose: 0.25 mg/kg/injection, schedule: Q01DX Z (ip), vehicle: carboxymethylcellulose (CMC)) was 119 % of control, the T/C (endpoint: mean survival time, dose: 0.25 mg/kg/injection, schedule: Q01DX Z (sc), vehicle: saline) was 124 % of control and the T/C (endpoint: mean survival time, dose: 0.48 mg/kg/injection, schedule: Q## X008 (ip), vehicle: saline) was 110 % of control. The T/C (endpoint: mean survival time, dose: 0.48 mg/kg/injection, schedule: Q## X016 (ip), vehicle: saline) was 103 % of control, the T/C (endpoint: mean survival time, dose: 0.48 mg/kg/injection, schedule: Q## X024 (ip), vehicle: saline) was 107 % of control and the T/C (endpoint: mean survival time, dose: 0.5 mg/kg/injection, schedule: Q01DX001 (ip), vehicle: saline) was 107 % of control. The T/C (endpoint: mean survival time, dose: 0.5 mg/kg/injection, schedule: Q01DX001 (sc), vehicle: saline) was 112 % of control, the T/C (endpoint: mean survival time, dose: 0.5 mg/kg/injection, schedule: Q01DX006 (iv), vehicle: saline) was 150 % of control and the T/C (endpoint: mean survival time, dose: 0.5 mg/kg/injection, schedule: Q01DX009 (oral), vehicle: saline) was 107 % of control. For the same compound, the T/C (endpoint: mean survival time, dose: 0.5 mg/kg/injection, schedule: Q01DX010 (oral), vehicle: carboxymethylcellulose (CMC)) was 164 % of control, the T/C (endpoint: mean survival time, dose: 0.5 mg/kg/injection, schedule: Q01DX Z (im), vehicle: saline) was 156 % of control and the T/C (endpoint: mean survival time, dose: 0.5 mg/kg/injection, schedule: Q04DX003 (ip), vehicle: Klucel (hydroxypropylcellulose) (HPC)) was 117 % of control. For the same compound, the T/C (endpoint: mean survival time, dose: 0.5 mg/kg/injection, schedule: Q## X002 (ip), vehicle: saline) was 109 % of control, the T/C (endpoint: mean survival time, dose: 0.5 mg/kg/injection, schedule: Q## X003 (ip), vehicle: saline) was 110 % of control and 115 % of control and the T/C (endpoint: mean survival time, dose: 0.5 mg/kg/injection, schedule: Q## X006 (ip), vehicle: saline) was 107 % of control. For the same compound, the T/C (endpoint: mean survival time, dose: 0.5 mg/kg/injection, schedule: Q## X024 (ip), vehicle: saline) was 102 % of control, the T/C (endpoint: mean survival time, dose: 0.5 mg/kg/injection, schedule: Q#A X Z (ip), vehicle: saline) was 151 % of control and the T/C (endpoint: mean survival time, dose: 0.67 mg/kg/injection, schedule: Q01DX005 (ip), vehicle: saline) was 153 % of control and 158 % of control. The T/C (endpoint: mean survival time, dose: 0.7 mg/kg/injection, schedule: Q01DX001 (ip), vehicle: saline) was 103 % of control and 105 % of control, the T/C (endpoint: mean survival time, dose: 0.8 mg/kg/injection, schedule: Q01DX009 (ip), vehicle: saline) was 115 % of control and the T/C (endpoint: mean survival time, dose: 0.86 mg/kg/injection, schedule: Q01DX001 (ip), vehicle: saline) was 159 % of control. For the same compound, the T/C (endpoint: mean survival time, dose: 0.96 mg/kg/injection, schedule: Q## X008 (ip), vehicle: saline) was 106 % of control, the T/C (endpoint: mean survival time, dose: 0.96 mg/kg/injection, schedule: Q## X016 (ip), vehicle: saline) was 111 % of control and the T/C (endpoint: mean survival time, dose: 1.0 mg/kg/injection, schedule: Q01DX001 (sc), vehicle: saline) was 115 % of control. The T/C (endpoint: mean survival time, dose: 1.0 mg/kg/injection, schedule: Q01DX006 (iv), vehicle: saline) was 114 % of control, the T/C (endpoint: mean survival time, dose: 1.0 mg/kg/injection, schedule: Q01DX009 (oral), vehicle: saline) was 124 % of control and the T/C (endpoint: mean survival time, dose: 1.0 mg/kg/injection, schedule: Q01DX010 (oral), vehicle: carboxymethylcellulose (CMC)) was 119 % of control. The T/C (endpoint: mean survival time, dose: 1.0 mg/kg/injection, schedule: Q01DX Z (ip), vehicle: saline) was 96 % of control and 110 % of control, the T/C (endpoint: mean survival time, dose: 1.0 mg/kg/injection, schedule: Q04DX003 (ip), vehicle: Klucel (hydroxypropylcellulose) (HPC)) was 152 % of control and 173 % of control and the T/C (endpoint: mean survival time, dose: 1.0 mg/kg/injection, schedule: Q## X003 (ip), vehicle: saline) was 177 % of control. The T/C (endpoint: mean survival time, dose: 1.0 mg/kg/injection, schedule: Q## X008 (ip), vehicle: saline) was 108 % of control, the T/C (endpoint: mean survival time, dose: 1.0 mg/kg/injection, schedule: Q#A X Z (ip), vehicle: saline) was 93 % of control and the T/C (endpoint: mean survival time, dose: 1.3 mg/kg/injection, schedule: Q## X003 (ip), vehicle: saline) was 164 % of control. For the same compound, the T/C (endpoint: mean survival time, dose: 1.3 mg/kg/injection, schedule: Q## X004 (ip), vehicle: saline) was 185 % of control, the T/C (endpoint: mean survival time, dose: 1.5 mg/kg/injection, schedule: Q01DX005 (ip), vehicle: saline) was 118 % of control and the T/C (endpoint: mean survival time, dose: 1.5 mg/kg/injection, schedule: Q04DX003 (ip), vehicle: saline) was 169 % of control. The T/C (endpoint: mean survival time, dose: 1.75 mg/kg/injection, schedule: Q07DX Z (ip), vehicle: saline) was 193 % of control, the T/C (endpoint: mean survival time, dose: 2.0 mg/kg/injection, schedule: Q01DX001 (oral), vehicle: saline) was 106 % of control and the T/C (endpoint: mean survival time, dose: 2.0 mg/kg/injection, schedule: Q01DX001 (sc), vehicle: saline) was 159 % of control. For the same compound, the T/C (endpoint: mean survival time, dose: 2.0 mg/kg/injection, schedule: Q01DX010 (oral), vehicle: carboxymethylcellulose (CMC)) was 97 % of control, the T/C (endpoint: mean survival time, dose: 2.0 mg/kg/injection, schedule: Q## X002 (ip), vehicle: saline) was 197 % of control and the T/C (endpoint: mean survival time, dose: 2.0 mg/kg/injection, schedule: Q## X003 (ip), vehicle: saline) was 172 % of control and 186 % of control. For the same compound, the T/C (endpoint: mean survival time, dose: 2.0 mg/kg/injection, schedule: Q## X004 (ip), vehicle: saline) was 191 % of control, the T/C (endpoint: mean survival time, dose: 2.0 mg/kg/injection, schedule: Q## X006 (ip), vehicle: saline) was 193 % of control and the T/C (endpoint: mean survival time, dose: 2.0 mg/kg/injection, schedule: Q## X016 (ip), vehicle: saline) was 168 % of control. For the same compound, the T/C (endpoint: mean survival time, dose: 2.0 mg/kg/injection, schedule: Q## X024 (ip), vehicle: saline) was 188 % of control, the T/C (endpoint: mean survival time, dose: 2.1 mg/kg/injection, schedule: Q01DX001 (ip), vehicle: saline) was 187 % of control and the T/C (endpoint: mean survival time, dose: 3.0 mg/kg/injection, schedule: Q01DX001 (ip), vehicle: saline) was 107 % of control. The T/C (endpoint: mean survival time, dose: 3.0 mg/kg/injection, schedule: Q## X003 (ip), vehicle: saline) was 150 % of control, the T/C (endpoint: mean survival time, dose: 3.0 mg/kg/injection, schedule: Q## X004 (ip), vehicle: saline) was 108 % of control and the T/C (endpoint: mean survival time, dose: 3.13 mg/kg/injection, schedule: Q01DX001 (ip), vehicle: saline) was 164 % of control. The T/C (endpoint: mean survival time, dose: 3.2 mg/kg/injection, schedule: Q01DX001 (ip), vehicle: saline) was 213 % of control, the T/C (endpoint: mean survival time, dose: 4.0 mg/kg/injection, schedule: Q01DX001 (oral), vehicle: saline) was 122 % of control and the T/C (endpoint: mean survival time, dose: 4.0 mg/kg/injection, schedule: Q01DX009 (oral), vehicle: saline) was 113 % of control. The T/C (endpoint: mean survival time, dose: 4.0 mg/kg/injection, schedule: Q01DX Z (oral), vehicle: saline) was 93 % of control, the T/C (endpoint: mean survival time, dose: 4.0 mg/kg/injection, schedule: Q## X002 (ip), vehicle: saline) was 118 % of control and the T/C (endpoint: mean survival time, dose: 4.0 mg/kg/injection, schedule: Q## X006 (ip), vehicle: saline) was 95 % of control. The T/C (endpoint: mean survival time, dose: 4.5 mg/kg/injection, schedule: Q01DX001 (ip), vehicle: saline) was 94 % of control, the T/C (endpoint: mean survival time, dose: 4.5 mg/kg/injection, schedule: Q## X003 (ip), vehicle: saline) was 98 % of control and the T/C (endpoint: mean survival time, dose: 4.5 mg/kg/injection, schedule: Q## X004 (ip), vehicle: saline) was 106 % of control. For the same compound, the T/C (endpoint: mean survival time, dose: 8.0 mg/kg/injection, schedule: Q01DX001 (ip), vehicle: saline) was 110 % of control, the T/C (endpoint: mean survival time, dose: 16.0 mg/kg/injection, schedule: Q01DX001 (ip), vehicle: saline) was 107 % of control and the T/C (endpoint: mean survival time, dose: 49.0 micrograms/kg/injection, schedule: Q01DX Z (ip), vehicle: carboxymethylcellulose (CMC)) was 95 % of control. The T/C (endpoint: mean survival time, dose: 98.0 micrograms/kg/injection, schedule: Q01DX Z (ip), vehicle: carboxymethylcellulose (CMC)) was 97 % of control, the T/C (endpoint: mean survival time, dose: 195.0 micrograms/kg/injection, schedule: Q01DX Z (ip), vehicle: carboxymethylcellulose (CMC)) was 95 % of control and the T/C (endpoint: mean survival time, dose: 390.0 micrograms/kg/injection, schedule: Q01DX Z (ip), vehicle: carboxymethylcellulose (CMC)) was 100 % of control. For the same compound, the T/C (endpoint: median survival time, dose: 0.25 mg/kg/injection, schedule: Q01DX001 (ip), vehicle: saline) was 104 % of control and the T/C (endpoint: median survival time, dose: 0.5 mg/kg/injection, schedule: Q01DX001 (ip), vehicle: saline) was 115 % of control.
